Laboratory results taken from PMC8449129, “Single tracer-based protocol for broad-spectrum kinase profiling in live cells with NanoBRET” (STAR Protocols, 2021).

Tests used:
Test in all cases: cell-based
Parameters in all cases: NanoBRET live-cell target engagement; % occupancy from displacement of tracer K10 on NanoLuc-kinase fusions, mean n=3
Details in all cases: HEK293, read-out: % inhibition
STK3 = STK3 (Homo sapiens, UniProt Q13188)
In short: (§1)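 Live-cell NanoBRET target engagement: cells expressing kinase–NanoLuc fusion with tracer treated with compound 2 h at 37 °C, 5% CO2. BRET read from donor (450 nm) and acceptor (610/630 nm) emission with 20 μM extracellular NanoLuc inhibitor; % occupancy calculated relative to tracer+DMSO and zero-BRET controls.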

PTK6 = PTK6 (Homo sapiens, UniProt Q13882)
In short: as §1

STK17B = STK17B (Homo sapiens, UniProt O94768)
In short: as §1

FLT3 = FLT3 (Homo sapiens, UniProt P36888)
In short: as §1

CSNK2A2 = CSNK2A2 (Homo sapiens, UniProt P19784)
In short: as §1

PRKACA = PRKACA (Homo sapiens, UniProt P17612)
In short: as §1

ITK = ITK (Homo sapiens, UniProt Q08881)
In short: as §1

MAP3K12 = MAP3K12 (Homo sapiens, UniProt Q12852)
In short: as §1

CSNK1D = CSNK1D (Homo sapiens, UniProt P48730)
In short: as §1

ERN2 = ERN2 (Homo sapiens, UniProt Q76MJ5)
In short: as §1

RIPK2 = RIPK2 (Homo sapiens, UniProt O43353)
In short: as §1

MAPK11 = MAPK11 (Homo sapiens, UniProt Q15759)
In short: as §1

CSNK2A1 = CSNK2A1 (Homo sapiens, UniProt P68400)
In short: as §1

CDK15 = CDK15 (Homo sapiens, UniProt Q96Q40)
In short: as §1

PTK2 = PTK2 (Homo sapiens, UniProt Q05397)
In short: as §1

Sequence of MAP3K12 (Q12852 whole entry): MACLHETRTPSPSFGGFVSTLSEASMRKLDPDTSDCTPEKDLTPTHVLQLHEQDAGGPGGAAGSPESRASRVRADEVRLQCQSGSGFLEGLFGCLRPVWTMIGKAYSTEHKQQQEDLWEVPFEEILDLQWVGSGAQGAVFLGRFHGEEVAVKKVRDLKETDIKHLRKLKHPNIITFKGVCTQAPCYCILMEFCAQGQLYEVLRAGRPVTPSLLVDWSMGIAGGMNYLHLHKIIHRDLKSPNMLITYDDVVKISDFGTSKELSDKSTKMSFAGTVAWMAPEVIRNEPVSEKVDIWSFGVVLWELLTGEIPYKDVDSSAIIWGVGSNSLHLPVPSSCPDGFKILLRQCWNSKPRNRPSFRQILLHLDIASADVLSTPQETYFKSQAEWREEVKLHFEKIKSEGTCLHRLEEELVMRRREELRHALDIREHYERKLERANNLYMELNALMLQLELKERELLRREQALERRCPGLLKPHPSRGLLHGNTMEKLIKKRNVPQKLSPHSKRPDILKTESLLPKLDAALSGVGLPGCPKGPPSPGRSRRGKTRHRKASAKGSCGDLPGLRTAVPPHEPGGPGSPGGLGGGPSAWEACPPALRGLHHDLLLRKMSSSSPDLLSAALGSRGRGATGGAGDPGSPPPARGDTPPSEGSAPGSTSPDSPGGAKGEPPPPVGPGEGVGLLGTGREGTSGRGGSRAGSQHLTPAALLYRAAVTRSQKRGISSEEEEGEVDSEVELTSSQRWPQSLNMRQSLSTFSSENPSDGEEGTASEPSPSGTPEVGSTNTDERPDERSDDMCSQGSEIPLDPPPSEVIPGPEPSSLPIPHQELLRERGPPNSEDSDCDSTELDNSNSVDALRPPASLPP
Sequence of ITK (Q08881 whole entry): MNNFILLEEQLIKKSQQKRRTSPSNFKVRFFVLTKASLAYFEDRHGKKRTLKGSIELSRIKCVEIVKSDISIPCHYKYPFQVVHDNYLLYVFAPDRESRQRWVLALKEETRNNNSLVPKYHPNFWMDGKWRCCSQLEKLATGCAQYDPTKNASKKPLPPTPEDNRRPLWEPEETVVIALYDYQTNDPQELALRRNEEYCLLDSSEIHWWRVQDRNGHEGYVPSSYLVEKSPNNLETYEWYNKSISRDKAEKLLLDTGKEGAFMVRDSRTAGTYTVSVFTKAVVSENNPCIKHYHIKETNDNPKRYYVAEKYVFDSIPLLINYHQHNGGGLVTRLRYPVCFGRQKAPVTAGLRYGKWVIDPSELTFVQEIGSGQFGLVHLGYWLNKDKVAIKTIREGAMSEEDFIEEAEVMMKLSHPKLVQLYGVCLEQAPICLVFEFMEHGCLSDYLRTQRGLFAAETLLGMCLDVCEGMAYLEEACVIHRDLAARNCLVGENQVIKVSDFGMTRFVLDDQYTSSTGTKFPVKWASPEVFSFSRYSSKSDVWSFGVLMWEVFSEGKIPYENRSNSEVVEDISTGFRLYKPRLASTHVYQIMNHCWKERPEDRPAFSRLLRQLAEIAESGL
Sequence of CSNK1D (P48730 whole entry): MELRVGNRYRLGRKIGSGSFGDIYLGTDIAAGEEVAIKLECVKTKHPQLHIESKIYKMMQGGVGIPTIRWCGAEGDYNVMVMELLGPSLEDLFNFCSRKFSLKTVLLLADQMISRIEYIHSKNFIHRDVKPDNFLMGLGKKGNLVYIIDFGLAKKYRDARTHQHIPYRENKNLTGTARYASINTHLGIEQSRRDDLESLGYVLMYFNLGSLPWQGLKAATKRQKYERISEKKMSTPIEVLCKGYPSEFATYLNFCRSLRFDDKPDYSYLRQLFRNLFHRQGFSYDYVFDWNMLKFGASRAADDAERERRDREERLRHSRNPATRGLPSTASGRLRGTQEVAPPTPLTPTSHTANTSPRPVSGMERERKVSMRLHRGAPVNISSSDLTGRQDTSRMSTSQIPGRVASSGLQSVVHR
Sequence of ERN2 (Q76MJ5 whole entry): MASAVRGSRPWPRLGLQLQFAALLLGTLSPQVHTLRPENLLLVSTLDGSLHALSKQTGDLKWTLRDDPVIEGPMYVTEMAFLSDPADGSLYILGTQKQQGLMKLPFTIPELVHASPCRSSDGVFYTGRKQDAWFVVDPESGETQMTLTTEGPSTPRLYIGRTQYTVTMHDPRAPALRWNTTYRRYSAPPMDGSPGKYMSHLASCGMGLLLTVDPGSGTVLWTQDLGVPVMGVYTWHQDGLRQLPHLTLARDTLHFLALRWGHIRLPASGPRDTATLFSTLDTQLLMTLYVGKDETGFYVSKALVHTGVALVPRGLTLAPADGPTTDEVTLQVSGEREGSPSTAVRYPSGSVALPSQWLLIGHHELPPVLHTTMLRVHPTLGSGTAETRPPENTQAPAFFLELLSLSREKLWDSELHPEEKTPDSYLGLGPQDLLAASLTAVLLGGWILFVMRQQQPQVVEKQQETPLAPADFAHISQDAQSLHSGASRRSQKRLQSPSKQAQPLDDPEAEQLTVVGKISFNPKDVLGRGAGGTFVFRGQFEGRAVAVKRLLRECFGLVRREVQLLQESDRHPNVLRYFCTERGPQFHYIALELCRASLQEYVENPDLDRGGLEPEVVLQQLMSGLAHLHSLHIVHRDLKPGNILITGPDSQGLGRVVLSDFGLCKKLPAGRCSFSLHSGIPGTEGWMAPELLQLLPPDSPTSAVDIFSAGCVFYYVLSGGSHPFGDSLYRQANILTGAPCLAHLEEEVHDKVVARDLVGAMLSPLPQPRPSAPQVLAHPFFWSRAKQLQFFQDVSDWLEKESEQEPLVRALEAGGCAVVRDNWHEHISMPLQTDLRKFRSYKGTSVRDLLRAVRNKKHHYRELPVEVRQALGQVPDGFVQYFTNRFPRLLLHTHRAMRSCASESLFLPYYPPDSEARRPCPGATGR
Sequence of STK3 (Q13188 whole entry, the tested form may be a part): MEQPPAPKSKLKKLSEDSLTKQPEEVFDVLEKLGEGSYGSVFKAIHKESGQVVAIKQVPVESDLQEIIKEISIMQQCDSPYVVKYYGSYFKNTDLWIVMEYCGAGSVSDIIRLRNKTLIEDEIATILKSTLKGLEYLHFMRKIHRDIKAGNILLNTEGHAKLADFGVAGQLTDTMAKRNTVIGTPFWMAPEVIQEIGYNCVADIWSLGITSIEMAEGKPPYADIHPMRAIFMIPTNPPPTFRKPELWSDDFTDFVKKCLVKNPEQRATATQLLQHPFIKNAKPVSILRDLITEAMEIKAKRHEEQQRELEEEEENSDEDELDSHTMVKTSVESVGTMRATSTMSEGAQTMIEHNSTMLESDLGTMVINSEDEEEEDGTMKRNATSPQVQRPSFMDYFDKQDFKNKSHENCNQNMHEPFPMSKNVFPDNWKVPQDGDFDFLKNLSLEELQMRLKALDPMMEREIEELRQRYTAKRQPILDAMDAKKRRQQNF
Sequence of MAPK11 (Q15759 whole entry): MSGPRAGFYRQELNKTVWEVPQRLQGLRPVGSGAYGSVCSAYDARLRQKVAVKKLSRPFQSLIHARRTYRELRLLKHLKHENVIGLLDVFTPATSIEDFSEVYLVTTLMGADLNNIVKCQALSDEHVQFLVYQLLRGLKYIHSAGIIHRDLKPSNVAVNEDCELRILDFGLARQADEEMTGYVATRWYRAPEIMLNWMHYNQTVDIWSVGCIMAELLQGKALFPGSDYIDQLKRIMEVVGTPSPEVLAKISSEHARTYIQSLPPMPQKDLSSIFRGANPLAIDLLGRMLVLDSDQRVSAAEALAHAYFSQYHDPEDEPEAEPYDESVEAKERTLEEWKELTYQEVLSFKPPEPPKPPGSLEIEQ
Sequence of STK17B (O94768 whole entry): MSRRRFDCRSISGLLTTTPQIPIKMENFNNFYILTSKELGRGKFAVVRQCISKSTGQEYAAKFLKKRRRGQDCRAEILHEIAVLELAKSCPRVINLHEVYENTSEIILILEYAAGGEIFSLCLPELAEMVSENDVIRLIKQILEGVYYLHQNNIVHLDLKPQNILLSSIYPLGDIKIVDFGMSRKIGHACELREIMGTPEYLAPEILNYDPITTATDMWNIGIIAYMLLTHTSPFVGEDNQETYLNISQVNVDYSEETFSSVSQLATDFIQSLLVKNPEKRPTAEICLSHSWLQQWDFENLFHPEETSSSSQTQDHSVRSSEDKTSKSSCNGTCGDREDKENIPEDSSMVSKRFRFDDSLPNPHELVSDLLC
Sequence of RIPK2 (O43353 whole entry): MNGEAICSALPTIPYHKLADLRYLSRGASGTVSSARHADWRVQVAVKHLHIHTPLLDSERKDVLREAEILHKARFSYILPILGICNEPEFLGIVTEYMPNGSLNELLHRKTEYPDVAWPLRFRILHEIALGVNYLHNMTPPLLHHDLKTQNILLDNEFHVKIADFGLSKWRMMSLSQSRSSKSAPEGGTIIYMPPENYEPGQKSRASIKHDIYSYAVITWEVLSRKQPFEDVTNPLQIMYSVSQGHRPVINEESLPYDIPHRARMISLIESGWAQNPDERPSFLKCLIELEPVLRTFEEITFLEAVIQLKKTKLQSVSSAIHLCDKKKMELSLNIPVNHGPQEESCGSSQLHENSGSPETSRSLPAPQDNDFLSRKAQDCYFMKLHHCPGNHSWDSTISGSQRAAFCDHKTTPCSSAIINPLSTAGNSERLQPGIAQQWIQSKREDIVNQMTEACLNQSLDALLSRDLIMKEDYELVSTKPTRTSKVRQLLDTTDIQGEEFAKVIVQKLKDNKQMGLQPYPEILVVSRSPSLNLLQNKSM
Sequence of CSNK2A1 (P68400 whole entry): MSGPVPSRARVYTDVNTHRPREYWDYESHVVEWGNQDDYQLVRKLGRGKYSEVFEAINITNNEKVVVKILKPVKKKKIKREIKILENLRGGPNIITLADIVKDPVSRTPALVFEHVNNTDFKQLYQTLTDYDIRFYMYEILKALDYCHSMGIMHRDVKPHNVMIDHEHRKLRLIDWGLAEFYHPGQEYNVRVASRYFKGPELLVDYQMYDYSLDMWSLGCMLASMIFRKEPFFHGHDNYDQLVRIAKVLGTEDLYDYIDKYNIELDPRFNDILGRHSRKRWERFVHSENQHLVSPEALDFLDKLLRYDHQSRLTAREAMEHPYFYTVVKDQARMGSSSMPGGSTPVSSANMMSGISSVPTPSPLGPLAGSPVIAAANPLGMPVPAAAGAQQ

C[C@@H](Oc1cc(-c2cnn(C3CCNCC3)c2)cnc1N)c1c(Cl)ccc(F)c1Cl [crizotinib]
inhibition at 1 µM (STK3): 1% | inhibition at 1 µM (PTK6): -2% | inhibition at 1 µM (STK17B): 0% | inhibition at 1 µM (FLT3): -4% | inhibition at 1 µM (CSNK2A2): -14% | inhibition at 1 µM (PRKACA): -1% | inhibition at 1 µM (ITK): -1% | inhibition at 1 µM (MAP3K12): 12% | inhibition at 1 µM (CSNK1D): -4% | inhibition at 1 µM (ERN2): -9% | inhibition at 1 µM (RIPK2): 43% | inhibition at 1 µM (MAPK11): 0% | inhibition at 1 µM (CSNK2A1): 5% | inhibition at 1 µM (CDK15): 3% | inhibition at 1 µM (PTK2): 40%
